Experimental data from PMC2866172 (Journal of medicinal chemistry, 2010).

How the values were obtained:
[1] = Brain PET imaging in anesthetized baboons
[2] = Torso PET imaging in anesthetized baboons; conditions: for Calculated drug concentration in gallbladder / Calculated drug concentration in heart / Calculated drug concentration in kidney cortex / Calculated drug concentration in kidney medulla / Calculated drug concentration in liver / Calculated drug concentration in lung / Calculated drug concentration in plasma: calculated assuming 10 mg/kg dose, 17 kg baboon; for Concentration in gallbladder / Concentration in heart / Concentration in kidney cortex / Concentration in kidney medulla / Concentration in liver / Concentration in lung / Concentration in plasma: baboon, i.v.

CO[C@H]1/C=C/O[C@@]2(C)Oc3c(C)c(O)c4cc(c(/C=N/N5CCN([11CH3])CC5)c(O)c4c3C2=O)NC(=O)/C(C)=C\C=C\C(C)[C@H](O)[C@@H](C)[C@@H](O)[C@@H](C)[C@H](OC(C)=O)[C@@H]1C (stereo partly drawn) [[^11C]RIF]
Estimated concentration in whole brain, C30min ([1]; 30 min, estimated for 17 kg baboon, 10 mg/kg dose, signal assumed intact drug): 1.09 µg/mL
Estimated concentration in whole brain, C60min ([1]; 60 min, estimated for 17 kg baboon, 10 mg/kg dose, signal assumed intact drug): 0.912 µg/mL
Estimated concentration in whole brain, C90min ([1]; 90 min, estimated for 17 kg baboon, 10 mg/kg dose, signal assumed intact drug): 1.21 µg/mL
Concentration in whole brain, C30min ([1]; baboon, i.v., 30 min): 0.000642 %ID/cc
Concentration in whole brain, C60min ([1]; baboon, i.v., 60 min): 0.000536 %ID/cc
Concentration in whole brain, C90min ([1]; baboon, i.v., 90 min): 0.00071 %ID/cc
Calculated drug concentration in gallbladder ([2]; 15 min): (121.40) µg/ml
Calculated drug concentration in heart ([2]; 15 min): (7.28) µg/ml
Calculated drug concentration in kidney cortex ([2]; 15 min): (15.79) µg/ml
Calculated drug concentration in kidney medulla ([2]; 15 min): (36.39) µg/ml
Calculated drug concentration in liver ([2]; 15 min): (258.98) µg/ml
Calculated drug concentration in lung ([2]; 15 min): (5.03) µg/ml
Calculated drug concentration in plasma ([2]; 15 min): (2.81) µg/ml
Calculated drug concentration in gallbladder ([2]; 30 min): (586.34) µg/ml
Calculated drug concentration in heart ([2]; 30 min): (5.28) µg/ml
Calculated drug concentration in kidney cortex ([2]; 30 min): (6.34) µg/ml
Calculated drug concentration in kidney medulla ([2]; 30 min): (11.63) µg/ml
Calculated drug concentration in liver ([2]; 30 min): (276.12) µg/ml
Calculated drug concentration in lung ([2]; 30 min): (2.83) µg/ml
Calculated drug concentration in plasma ([2]; 30 min): (1.50) µg/ml
Calculated drug concentration in gallbladder ([2]; 60 min): (983.24) µg/ml
Calculated drug concentration in heart ([2]; 60 min): (1.93) µg/ml
Calculated drug concentration in kidney cortex ([2]; 60 min): (0.43) µg/ml
Calculated drug concentration in kidney medulla ([2]; 60 min): (6.73) µg/ml
Calculated drug concentration in liver ([2]; 60 min): (288.05) µg/ml
Calculated drug concentration in lung ([2]; 60 min): (2.53) µg/ml
Calculated drug concentration in plasma ([2]; 60 min): (1.14) µg/ml
Calculated drug concentration in gallbladder ([2]; 90 min): (1009.99) µg/ml
Calculated drug concentration in heart ([2]; 90 min): (6.80) µg/ml
Calculated drug concentration in kidney cortex ([2]; 90 min): (8.19) µg/ml
Calculated drug concentration in kidney medulla ([2]; 90 min): (9.44) µg/ml
Calculated drug concentration in liver ([2]; 90 min): (299.73) µg/ml
Calculated drug concentration in plasma ([2]; 90 min): (1.16) µg/ml
Concentration in gallbladder ([2]; 15 min after administration): 0.0714 %ID/cc
Concentration in heart ([2]; 15 min after administration): 0.0043 %ID/cc
Concentration in kidney cortex ([2]; 15 min after administration): 0.0093 %ID/cc
Concentration in kidney medulla ([2]; 15 min after administration): 0.0214 %ID/cc
Concentration in liver ([2]; 15 min after administration): 0.1523 %ID/cc
Concentration in lung ([2]; 15 min after administration): 0.003 %ID/cc
Concentration in plasma ([2]; 15 min after administration): 0.00165 %ID/cc
Concentration in gallbladder ([2]; 30 min after administration): 0.3449 %ID/cc
Concentration in heart ([2]; 30 min after administration): 0.0031 %ID/cc
Concentration in kidney cortex ([2]; 30 min after administration): 0.0037 %ID/cc
Concentration in kidney medulla ([2]; 30 min after administration): 0.0068 %ID/cc
Concentration in liver ([2]; 30 min after administration): 0.1624 %ID/cc
Concentration in lung ([2]; 30 min after administration): 0.0017 %ID/cc
Concentration in plasma ([2]; 30 min after administration): 0.00088 %ID/cc
Concentration in gallbladder ([2]; 60 min after administration): 0.5784 %ID/cc
Concentration in heart ([2]; 60 min after administration): 0.0011 %ID/cc
Concentration in kidney cortex ([2]; 60 min after administration): 0.0003 %ID/cc
Concentration in kidney medulla ([2]; 60 min after administration): 0.004 %ID/cc
Concentration in liver ([2]; 60 min after administration): 0.1694 %ID/cc
Concentration in lung ([2]; 60 min after administration): 0.0015 %ID/cc
Concentration in plasma ([2]; 60 min after administration): 0.00067 %ID/cc
Concentration in gallbladder ([2]; 90 min after administration): 0.5941 %ID/cc
Concentration in heart ([2]; 90 min after administration): 0.004 %ID/cc
Concentration in kidney cortex ([2]; 90 min after administration): 0.0048 %ID/cc
Concentration in kidney medulla ([2]; 90 min after administration): 0.0056 %ID/cc
Concentration in liver ([2]; 90 min after administration): 0.1763 %ID/cc
Concentration in plasma ([2]; 90 min after administration): 0.00068 %ID/cc
